We go through six compounds from patent publication US12583853B2, “1H-pyrrolo[2,3-b]pyridine derivatives and related compounds as BCL-2 inhibitors for the treatment of neoplastic and autoimmune diseases” (Newave Pharmaceutical Inc., priority 2018, dated 2026).

SMILES strings stand for the structures. pEC50, pIC50, pKi: −log10 of the molar value.

For orientation: pEC50 means the EC50 on a negative log10 scale, so that one unit is a factor of ten. For orientation: pKi means the Ki on a negative log10 scale, so that one unit is a factor of ten. A word on the pIC50: it is the IC50 on a negative log10 scale, so that one unit is a factor of ten. In general, TGI refers to the reduction of tumour growth relative to the control group.

In data set [1] the target is Mcl-1 (Homo sapiens, UniProt Q07820). The conditions noted are these: cited from earlier work.
The test system of data set [2] is RS4; 11 cells. The conditions noted are these: cited from earlier work.
The subject of data set [3] is CLL. The conditions noted are these: read-out: average EC50, apoptosis in CLL; cited from earlier work.
For data set [4], the system named is RS4; 11 xenografts. Conditions: single dose of 100 mg/kg; cited from earlier work.
Data set [5] deals with xenograft (DoHH2, Granta-519). Conditions: single agent or in combination with Bendamustine and other agents; cited from earlier work.
Data set [6] has as its target T1, Bcl-w (Homo sapiens, UniProt Q92843).
T1 sequence (Q92843 1-193): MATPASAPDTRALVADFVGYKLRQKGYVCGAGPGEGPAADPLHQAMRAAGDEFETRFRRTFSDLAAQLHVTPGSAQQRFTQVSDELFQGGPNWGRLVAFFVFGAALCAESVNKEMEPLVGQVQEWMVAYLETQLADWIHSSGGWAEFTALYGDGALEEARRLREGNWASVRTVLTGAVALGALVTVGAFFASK
The conditions noted are these: cited from earlier work.

Data set [7] concerns SCLC H146 cell line. Conditions: read-out: IC50 against SCLC H146 cell line; cited from earlier work.
Data set [8] concerns H345 xenograft. The conditions noted are these: 100 mg/kg/day, H345 xenograft model; cited from earlier work.
In data set [9] the test system is xenograft models of small-cell lung cancer and acute lymphoblastic leukemia. Conditions: oral administration, alone; cited from earlier work.
Data set [10] relates to circulating platelets. Conditions: clinical trial, patients; cited from earlier work.
For data set [11] the following is noted: in vivo; cited from earlier work.
The conditions of data set [12]: cited from earlier work.
For data set [13], the target named is T2, Bcl-2 (Homo sapiens, UniProt P10415).
T2 construct: purchased R&D Systems, Inc
Briefly: Bcl-2 competition binding (fluorescence polarization) assay. The conditions noted are these: for pIC50: fluorescence polarization, 3 hours incubation at room temperature, read-out: BCL2 IC50; for BCL2 inhibitor potency in words: statement on the BCL2 IC50 table. On the procedure:
Biological Example 1: Bcl-2 Competition Binding (Fluorescence Polarization) Assay
This binding assay was performed in 96-well plate and with each assay contained 15 and 30 nM of labeled peptide and purified Bcl-2 protein (purchased from R&D Systems, Inc). The assay buffer contained 20 mM Hepes (pH 7.0), 50 mM KCl, 5 mM MgCl2, 20 mM Na2MoO4, 0.1 mg/ml Bovine Gamma Globulin and 0.01% NP40. Compounds were diluted in DMSO and added to the final assay with concentration range from 20 μM to 2 nM. The polarization degree (mP) value was determined by BioTek Synergy II with background subtraction after 3 hours of incubation at room temperature. IC50 was calculated using Prism software with sigmoidal dose-response curve fitting. ABT-737 was used as reference compound. Such assays, carried out with a range of doses of test compounds, allowed the determination of an approximate IC50 value.
A general note: Polarisation of emitted light reports the rotation of a fluorescent probe.

T2 sequence (P10415 whole entry): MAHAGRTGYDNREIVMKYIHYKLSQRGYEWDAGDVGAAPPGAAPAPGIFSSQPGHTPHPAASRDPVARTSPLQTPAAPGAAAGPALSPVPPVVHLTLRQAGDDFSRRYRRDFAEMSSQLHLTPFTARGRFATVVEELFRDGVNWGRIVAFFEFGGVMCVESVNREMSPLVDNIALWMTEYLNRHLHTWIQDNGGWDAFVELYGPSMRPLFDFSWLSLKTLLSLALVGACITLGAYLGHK
Chain of Mcl-1 (Q07820 whole entry, species assumed): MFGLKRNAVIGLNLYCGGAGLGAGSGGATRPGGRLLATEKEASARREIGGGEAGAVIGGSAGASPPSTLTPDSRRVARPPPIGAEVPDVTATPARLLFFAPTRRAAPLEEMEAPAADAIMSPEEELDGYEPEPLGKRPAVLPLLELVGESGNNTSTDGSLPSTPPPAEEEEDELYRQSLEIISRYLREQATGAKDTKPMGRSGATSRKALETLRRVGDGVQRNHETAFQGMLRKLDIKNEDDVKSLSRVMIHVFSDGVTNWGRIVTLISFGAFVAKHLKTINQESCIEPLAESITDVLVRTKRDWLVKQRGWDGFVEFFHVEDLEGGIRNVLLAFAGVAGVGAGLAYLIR

As for `CC1(C)CCC(CN2CCN(c3ccc(C(=O)NS(=O)(=O)c4ccc(NCC5CCOCC5)c([N+](=O)[O-])c4)c(Oc4cnc5[nH]ccc5c4)c3)CC2)=C(c2ccc(Cl)cc2)C1` [ABT-199], in [1], the “activity to Mcl-1” value is listed as “no activity”. The pEC50 in [2] was 8.10. Also, the pEC50 in data set [3] is 8.52. Further, in data set [4], the “maximal tumor growth inhibition” value is reported as 95% and the tumor growth delay is listed as 152%. Also, the xenograft growth result in [5] was “inhibits xenograft growth”.
`CC1(C)CCC(c2ccc(Cl)cc2)=C(CN2CCN(c3ccc(C(=O)NS(=O)(=O)c4ccc(N[C@H](CCN5CCOCC5)CSc5ccccc5)c(S(=O)(=O)C(F)(F)F)c4)cc3)CC2)C1` [ABT-263]: the pKi in [6] was ≥ 9.00. For the same compound, the pIC50 in [7] was 6.96. In data set [8], the TGI is 80% and the “treated tumors indicating at least a 50% reduction in tumor volume” value is on record as 20%. The tumor response entry in data set [9] is “complete tumor regressions”. In addition, in data set [10], the “effect on circulating platelets” value is on record as “rapid, concentration-dependent decrease in the number of circulating platelets”. Further, the oral bioavailability result in data set [11] is listed as “orally bioavailable”.
Take `CN(C)CC[C@H](CSc1ccccc1)Nc1ccc(S(=O)(=O)NC(=O)c2ccc(N3CCN(Cc4ccccc4-c4ccc(Cl)cc4)CC3)cc2)cc1[N+](=O)[O-]` [ABT-737]: the oral bioavailability result in data set [11] is given as “not orally bioavailable”. In addition, in data set [12], the aqueous solubility result is on record as “low aqueous solubility”.
With `CC1(C)CCC(CN2CCN(c3ccc(C(=O)NS(=O)(=O)c4ccc(NCC5CCOCC5)c([N+](=O)[O-])c4)c(P(C)(=O)c4cnc5[nH]ccc5c4)c3)CC2)=C(c2ccc(Cl)cc2)C1` (centres unmarked) [Example 1, 4-(4-[[2-(4-chlorophenyl)-4,4-dimethylcyclohex-1-en-1-yl]methyl]piperazin-1-yl)-2-[methyl(1H-pyrrolo[2,3-b]pyridin-5-yl)phosphoroso]-N-[3-nitro-4-[(oxan-4-ylmethyl)amino]benzenesulfonyl]benzamide], in data set [13], the pIC50 is 9.35 and the “BCL2 inhibitor potency in words” value is “highly potent BCL2 inhibitor”.
In the case of `CC1(C)CCC(CN2CCN(c3ccc4c(c3)C(c3cnc5[nH]ccc5c3)CN(S(=O)(=O)c3ccc(NC[C@H]5COCCO5)c([N+](=O)[O-])c3)C4=O)CC2)=C(c2ccc(Cl)cc2)C1` (stereo partly drawn) [Example 2, 6-(4-[[2-(4-chlorophenyl)-4,4-dimethylcyclohex-1-en-1-yl]methyl]piperazin-1-yl)-2-(4-[[(2S)-1,4-dioxan-2-ylmethyl]amino]-3-nitrobenzenesulfonyl)-4-[1H-pyrrolo[2,3-b]pyridin-5-yl]-3,4-dihydroisoquinolin-1-one], the pIC50 in data set [13] was 9.10.
Regarding `C=C(c1cnc2[nH]ccc2c1)c1cc(N2CCN(CC3=C(c4ccc(Cl)cc4)CC(C)(C)CC3)CC2)ccc1C(=O)NS(=O)(=O)c1ccc(NC[C@H]2COCCO2)c([N+](=O)[O-])c1` [Example 3, (S)—N-((4-(((1,4-dioxan-2-yl)methyl)amino)-3-nitrophenyl)sulfonyl)-2-(1-(1H-pyrrolo[2,3-b]pyridin-5-yl)vinyl)-4-(4-((4′-chloro-5,5-dimethyl-3,4,5,6-tetrahydro-[1,1′-biphenyl]-2-yl)methyl)piperazin-1-yl)benzamide], in data set [13], the pIC50 is 8.89 and the “BCL2 inhibitor potency in words” value is recorded as “highly potent BCL2 inhibitor”.
